The subject of this test is clonic seizures caused by pentylenetetrazole. The test is described as follows: Protection against clonic seizures caused by pentylenetetrazole in rats (oral). Format: in vivo. As to conditions: Rattus norvegicus, rats (at least 5 per group), 2% starch vehicle, pentylenetetrazole 21 to 23 mg./kg. intravenously at estimated time of peak effect, protection of 50% of animals, read-out: MEDIAN EFFECTIVE ORAL DOSE ED50. The procedure:
The anti-anxiety properties of the compounds of the present invention have been established in a test which indicates anxiolytic activity by a measure of protection from convulsions resulting from the administration of pentylenetetrazole. Graded dose levels of the compounds of this invention are administered orally, in a 2% starch vehicle, to groups of at least 5 rats. At the estimated time of peak effect, the rats are treated intravenously with pentylenetetrazole at a dose of 21 to 23 mg./kg. of body weight. This dose is estimated to cause clonic seizures in 99% of unprotected rats. The effective dose of the test compound for protection of 50% of the animals is calculated by the method of D. H. Finney in Statistical Methods in Biological Assay, Second Edition, Hafner Publishing Co., New York, 1964, pp. 456- 457. Representative results are given in the table which follows in comparison with Librium (chlordiazepoxide) or Valium (diazepam), all of which were tested in exactly the same manner. It has been reported [R. T. Hill and D. H. Tedeschi, "Animal Testing and Screening Procedures in Evaluating Psychotropic Drugs" in An Introduction to Psychopharmacology, Eds. R. R. Rech and K. E. Moore, Raven Press, New York, pp. 237-288 (1971)] that there is a high degree of correlation between antagonism of pentylenetetrazole seizures in rats and antianxiety effects in higher warm-blooded animals.

Counter-ions that a name gives are not always drawn.

Consider seven compounds from patent US3947408A, “Pyrrolo-benzodiazepines, method of preparation and method of use” (American Cyanamid Company, priority 1974, dated 1976).

The term ED50 denotes the midpoint of the dose-response relation. On to `CN1C(=O)C2CCCN2Cc2ccccc21` (racemic) [Racemic 1,2,3,5,10,11a-hexahydro-10-methyl-11H-pyrrolo[2,1-c][1,4]benzodiazepin-11-one hydrochloride], for which the ED50 was 66 mg/kg.

Regarding `CN1C(=O)C2CCCN2Cc2cc(Cl)ccc21` (racemic) [Racemic 7-chloro-1,2,3,5,10,11a-hexahydro-10-methyl-11H-pyrrolo[2,1-c][1,4]benzodiazepin-11-one hydrochloride], the ED50 was 91 mg/kg.

In the case of `CN1C(=O)[C@@H]2CCCN2Cc2ccccc21` [Dextro 1,2,3,5,10,11a-hexahydro-10-methyl-11H-pyrrolo[2,1-c][1,4]-benzodiazepin-11-one hydrochloride], the ED50 is 15 mg/kg.

On to `Cc1ccc2c(c1)CN1CCC[C@H]1C(=O)N2C` [Dextro 7,10-dimethyl-1,2,3,5,10,11a-hexahydro-11H-pyrrolo[2,1-c][1,4]benzodiazepin-11-one hydrochloride], for which the ED50 is 32 mg/kg.

As for `CN1C(=O)[C@@H]2CCCN2Cc2cc(Cl)ccc21` [Dextro 7-chloro-1,2,3,5,10,11a-hexahydro-10-methyl-11H-pyrrolo[2,1-c][1,4]benzodiazepin-11-one hydrochloride], the ED50 is 80 mg/kg.

For `CNC1=Nc2ccc(Cl)cc2C(c2ccccc2)=[N+]([O-])C1` [Librium (chlordiazepoxide), chlordiazepoxide, reference compound], the ED50 is 2.5 mg/kg.

With `CN1C(=O)CN=C(c2ccccc2)c2cc(Cl)ccc21` [Valium (diazepam), diazepam, reference compound], the ED50 is 1.8 mg/kg.
